# Test results taken from PubChem BioAssay (NCI).
#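 Protocol summary: plate cells (96-well), add compound at 5 concentrations, incubate 48 h, interpolate endpoints linearly. The concentration for 50% growth inhibition is given as GI50. TGI denotes the concentration required for complete inhibition of growth.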
# How the values were obtained:
# Assay in all cases: NCI anticancer screen, dose series, 48 h
# 786-0 renal = tested on: 786-0 renal
# A498 renal = tested on: A498 renal
# CAKI-1 renal = tested on: CAKI-1 renal
# COLO 205 colon = tested on: COLO 205 colon
# HL-60(TB) leukemia = tested on: HL-60(TB) leukemia
# HOP-92 NSCLC = tested on: HOP-92 NSCLC
# LOX IMVI melanoma = tested on: LOX IMVI melanoma
# MDA-MB-231 breast = tested on: MDA-MB-231 breast
# SF-539 CNS = tested on: SF-539 CNS
# UACC-257 melanoma = tested on: UACC-257 melanoma
Structure (SMILES),GI50 (786-0 renal) [µM],TGI (786-0 renal) [µM],GI50 (A498 renal) [µM],TGI (A498 renal) [µM],GI50 (CAKI-1 renal) [µM],TGI (CAKI-1 renal) [µM],GI50 (COLO 205 colon) [µM],TGI (COLO 205 colon) [µM],GI50 (HL-60(TB) leukemia) [µM],TGI (HL-60(TB) leukemia) [µM],GI50 (HOP-92 NSCLC) [µM],TGI (HOP-92 NSCLC) [µM],GI50 (LOX IMVI melanoma) [µM],TGI (LOX IMVI melanoma) [µM],GI50 (MDA-MB-231 breast) [µM],TGI (MDA-MB-231 breast) [µM],GI50 (SF-539 CNS) [µM],TGI (SF-539 CNS) [µM],GI50 (UACC-257 melanoma) [µM],TGI (UACC-257 melanoma) [µM]
COc1ccccc1CNCCCN1C(=O)c2ccc3c4c(ccc(c24)C1=O)C(=O)N(CCCNCCCCNCCCCN)C3=O,2.25,14.4,0.472,4.51,3.98,46,0.351,1.31,1.28,5.71,1.87,8.66,0.941,4.76,0.944,8.17,2.15,5.5,0.857,2.22
CCCCCCCCCCCC1=NC(C)(C)CN1CCO,6.09,19,15.6,31.8,4.57,18.9,1.85,3.45,3.3,13.7,1.29,8.11,1.97,4.65,3.78,15.2,4.37,8.79,3.63,11.5
CSC(=S)N/N=C/c1ccccc1,,> 100,,> 100,,89.4,,> 100,,> 100,,> 100,,> 100,,> 100,,> 100,,> 100
CC(C)c1ccc2c(N=Nc3ccc(S(N)(=O)=O)cc3)c(O)[nH]c2c1,12.6,> 25,> 21.5,> 25,24.9,> 25,> 25,> 25,> 25,> 25,> 15.9,> 25,9.01,> 25,9.17,> 25,5.56,> 25,> 21.5,> 25
C=C1C(=O)O[C@H]2[C@H]1CC/C(C=Nc1ccc(C(F)(F)F)cc1N)=C\CC[C@@]1(C)O[C@@H]21,5.86,18.5,17,30.8,3.73,16.7,4.21,16.3,3.53,14.3,15.4,29.7,4.12,17.4,7.05,24.3,3.94,15.4,12.3,25.8
COc1ccc2c(CC(=O)O)cc(=O)oc2c1,,> 100,,> 100,,> 100,,> 100,,> 100,,> 100,,> 100,,> 100,,> 100,,> 100
COc1ccc2nc3cccc([N+](=O)[O-])c3c(NCCN(CCO)CCO)c2c1,0.0268,0.156,0.022,0.0524,0.0382,0.33,0.0118,0.031,0.0235,1.49,0.0278,0.0829,0.0379,0.18,0.0385,0.42,0.0893,0.27,0.0248,0.0599
C=C1C(=O)O[C@H]2[C@H]1CC/C(COC(=O)/C=C\C(=O)NCc1ccc(Cn3c(=O)sn(-c4ccc(OC)cc4)c3=O)cc1)=C\CC[C@@]1(C)O[C@@H]21,0.665,1.37,0.799,1.57,0.291,0.997,0.633,2.02,0.876,3.74,0.587,1.36,0.36,1.09,0.701,1.7,0.736,1.41,0.85,1.86
CCOC(=O)c1ccc2c(c1)[n+](=O)c(C(=O)c1ccc3ccccc3c1)c(C(F)(F)F)n2[O-],1.61,2.99,1.66,3.09,1.42,2.85,1.52,2.87,0.98,2.82,1.2,2.52,0.175,0.329,1.58,3.15,1.56,2.9,1.79,3.24
Fc1ccc(CNc2c3ccccc3nc3ccccc23)cc1,3.02,11.7,1.36,3.24,1.46,3.8,1.66,3.7,2.9,8.97,2.25,11.5,1.55,3.07,1.9,5.58,2.22,5.7,2.59,7.02
C[As](C)Sc1ccnc(S[As](C)C)n1,5.36,> 40.5,26,> 100,4.35,22.9,1.53,> 39.3,1.13,,0.774,5,2.76,96.2,2.62,15.8,2.77,> 34.8,5,27.1
CCOCCc1c(O)nc(SC)[nH]c1=O,> 100,> 100,> 100,> 100,> 100,> 100,> 100,> 100,> 100,> 100,> 100,> 100,> 100,> 100,> 100,> 100,> 100,> 100,> 100,> 100
O=C(O)CNC(=O)c1ccccc1O,,> 100,,> 100,,> 100,,> 100,,> 100,,> 100,,> 100,,> 100,,> 100,,> 100
Cn1cc(C2=C(c3c4n(c5ccccc35)CC(CN)C4)C(=O)NC2=O)c2ccccc21 (centres undefined),3.64,8.53,2.96,6.4,3.37,9.51,2.59,6.05,3.35,9.91,4.32,11.6,2.98,6.92,3.78,9.76,2.99,6.24,3.92,7.8
